Assay results as given in patent US11413278B2, “Compounds and methods for promoting stress resistance” (priority 2015, dated 2022).
Like-named read-outs stand apart in the source and are kept apart here.

How the values were obtained:
[1] = system: C. elegans; experiment: C. elegans lifespan assays (liquid and plate); assay type: in vivo, Caenorhabditis elegans; settings: for ILS at 60 µM / ILS at 66 µM: Caenorhabditis elegans; for O = Life span- extending scores in worms: score scale 0 to 2, 4 to 6 independent trials; for M = Lifespan-extending scores in worms: summary score
[2] = system: NRF2; experiment: in vitro; assay type: cell-based, human
[3] = system: LC3A/B puncta; experiment: Autophagy induction analysis (LC3A/B puncta immuno-staining); assay type: cell-based, human
Procedure, shortened: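 Read-out is LC3A/B puncta intensity per DAPI-positive nucleus, either total puncta (Exp. 1) or puncta colocalizing with LAMP2 lysosomes (Exp. 2). Cells were WI-38, exposed to compounds for 24 hrs before antibody staining overnight at 4° C and automated imaging.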

[4] = system: NRF2; experiment: qPCR analysis of NRF2-regulated genes; assay type: cell-based, human; settings: for fold induction at 10 µM: Homo sapiens; for Potential NRF2 Activation (>=2 target genes induced, by >=1.5-fold): Assay 13(p)
Procedure, shortened: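 Expression of HMOX1, NQO1, GCLC and GSTM1 measured by qPCR relative to B2M, PPIA and GAPDH. Cells were WI-38 fibroblasts exposed 24 hrs to 10 μM compound, with RNA and cDNA prepared via Cells-to-Ct. Where stated, cells were first transfected 36 hrs with FOXO3 or NRF2 siRNA at 10 nM.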

[5] = in liquid, wild type, with FuDR, 1.0 × 10^9 bacteria/ml, read-out: relative change of mean lifespan vs control, Trial 1
[6] = in liquid, wild type, with FuDR, 2.5 × 10^9 bacteria/ml, read-out: relative change of mean lifespan vs control, Trial 2
[7] = on plate, CF512 temperature-sensitive sterile animals, without FuDR, 2.0 × 10^10 bacteria/ml, read-out: relative change of mean lifespan vs control, Trial 3
[8] = Assay 2(z), 1.0 × 10^9 bacteria/ml, wild type + FuDR (2012 July), read-out: Lifespan assay in liquid
[9] = Assay 3(aa), 2.5 × 10^9 bacteria/ml, wild type + FuDR, read-out: Lifespan assay in liquid
[10] = Assay 4(ab), 2.0 × 10^10 bacteria/ml, CF512 worms, no FuDR, read-out: Lifespan assay on plates
[11] = WI-38 cells, 10 μM, 24 hrs, n=4, qPCR normalized by B2M, read-out: GCLC Normalized fold change
[12] = WI-38 cells, 10 μM, 24 hrs, n=4, qPCR normalized by B2M, read-out: GSTM1 Normalized fold change
[13] = WI-38 cells, 10 μM, 24 hrs, n=4, qPCR normalized by B2M, read-out: HMOX1 Normalized fold change
[14] = WI-38 cells, 10 μM, 24 hrs, n=4, qPCR normalized by B2M, read-out: NQO1 Normalized fold change
[15] = 24 h, Assay 12(o), at 10 uM, qPCR, read-out: Induction of NRF2-regulated genes: HMOX1 normalized fold-change
[16] = 24 h, Assay 12(o), at 10 uM, qPCR, read-out: Induction of NRF2-regulated genes: NQO1 normalized fold-change
[17] = rounded fold change, WI-38 cells, 10 μM, 24 hrs (RP11 for Gr-1D, RP29 for Gr-4D), read-out: Summary of effects on NRF2-regulated genes: HMOX1
[18] = rounded fold change, WI-38 cells, 10 μM, 24 hrs (RP29 for Gr-4D), read-out: Summary of effects on NRF2-regulated genes: NQO1
[19] = 10 μM, 24 hrs, WI-38, read-out: Expression of at least two NRF2 target genes
[20] = 10 μM, 24 hrs, WI-38 cells, qPCR, normalized to B2M, n = 4, read-out: HMOX1 expression, normalized fold change (NRF2-regulated gene)
[21] = 10 μM, 24 hrs, WI-38 cells, qPCR, normalized to B2M, n = 4, read-out: NQO1 expression, normalized fold change (NRF2-regulated gene)

| SMILES | ILS at 60 µM [1, 5] [%] | ILS at 60 µM [1, 6] [%] | ILS at 60 µM [1, 7] [%] | ILS at 66 µM [1, 8] [%] | ILS at 66 µM [1, 9] [%] | ILS at 66 µM [1, 10] [%] | O = Life span- extending scores in worms [1] | M = Lifespan-extending scores in worms [1] | J = NRF2-dependency for H2O2-resistance ([2]; score) | J = NRF2-dependency for H2O2-resistance ([2]; summary score) | H = Potential Autophagy Induction ([3]; score) | H = Potential Autophagy Induction ([3]; summary score) | F = Potential NRF2 Activation ([4]; 2-point score) | fold induction at 10 µM [4, 11] | fold induction at 10 µM [4, 12] | fold induction at 10 µM [4, 13] | fold induction at 10 µM [4, 14] | F = Potential NRF2 Activation ([4]; summary score) | Potential NRF2 Activation (>=2 target genes induced, by >=1.5-fold) [4] | fold induction at 10 µM [4, 15] | further results |
| --- | --- | --- | --- | --- | --- | --- | --- | --- | --- | --- | --- | --- | --- | --- | --- | --- | --- | --- | --- | --- | --- |
| Cc1ccc(S(=O)(=O)Nc2cccc3cccnc23)cc1 [Gr-3B] | 13.7 | 12.5 | 8.1 | 13.7 | 12.5 | 8.1 | 2 (2 for observed in more than 2 trials) | 2 (2 for observed in more than 2 trials) | 0 | 0 | 0 | 0 | 0 | 1.1 | 1.1 | 1.04 | 1.07 | 0 | – | – | Extension of C. elegans' lifespan (qualitative) ([1]; in at least 3 to 4 trials, group range ~10% to ~50%): could extend animal's lifespan |
| COc1ccc(C(=O)/C=C/c2ccc(F)cc2)c(OC)c1 [Gr-4A] | -21.4 | 1.2 | -0.1 | -21.4 | 1.2 | -0.1 | 0 | 0 | 0 | 0 | 0 | 0 | 2 | 1.18 | 1.24 | 5.24 | 2.73 | 2 | YES | 5.24 | fold induction at 10 µM ([4]; 24 h, Assay 12(o), at 10 uM, qPCR, read-out: Induction of NRF2-regulated genes: GSTM1 normalized fold-change): 1.24; fold induction at 10 µM [4, 16]: 2.73; fold induction at 10 µM [4, 17]: 5.24; fold induction at 10 µM ([4]; rounded fold change, WI-38 cells, 10 μM, 24 hrs (RP29 for Gr-4D), read-out: Summary of effects on NRF2-regulated genes: GSTM1): 1.24; fold induction at 10 µM [4, 18]: 2.73; fold induction at 10 µM [4, 19]: > 1.5; fold induction at 10 µM ([4]; 10 μM, 24 hrs, WI-38 cells, qPCR, normalized to B2M, n = 4, read-out: GSTM1 expression, normalized fold change (NRF2-regulated gene)): 1.24; fold induction at 10 µM [4, 20]: 5.24; fold induction at 10 µM [4, 21]: 2.73 |
| CNC(=O)/C(C#N)=C/c1c(Oc2ccc(C(C)(C)C)cc2)nc2ccccn2c1=O [Gr-5D] | 29.5 | 5.8 | -5.3 | 29.5 | 5.8 | -5.3 | 0 | 0 | 0 | 0 | 0 | 0 | 2 | 0.886 | 1.17 | 2.49 | 1.78 | 2 | YES | 2.49 | TXNIP expression, normalized fold change (printed in the column of NRF2-regulated genes) ([4]; 10 μM, 24 hrs, WI-38 cells, qPCR, normalized to B2M, n = 4): TXNIP 0.67, fold; Induction of NRF2-regulated genes: TXNIP normalized fold-change ([4]; Assay 12(o), at 10 uM, qPCR): TXNIP 0.67, fold-change; fold induction at 10 µM [4, 16]: 1.78; fold induction at 10 µM [4, 17]: 2.49; fold induction at 10 µM [4, 18]: 1.78; fold induction at 10 µM [4, 19]: > 1.5; fold induction at 10 µM [4, 20]: 2.49; fold induction at 10 µM [4, 21]: 1.78; Summary of effects on NRF2-regulated genes: TXNIP ([4]; fold change, WI-38 cells, 10 μM, 24 hrs): 0.67, |
